Experimental data as given in US20240299562A1 (priority 2020, published 2024).
Values joined by “and” are separate entries in the source; they are usually repeats but may differ in a detail not shown here. Equal values may be shown once. Read-outs that look alike come from different tables or passages of the source. Each block holds one molecule with its values, some of them ahead of it. *1 amine or outer side, *2 acyl side, *3 side chain or, on linkers, in order; H or OH if unused. Where a SMILES comes first, the peptide text is derived from it. [ ]: non-standard residue; d: D form. The star is where a group is joined. X1 = CO[C@@H](C1CCCN1[*:1])[C@@H](C)C(=O)[*:2]; Dil = CC[C@H](C)[C@H](NC)[C@@H](CC(=O)O)OC; PABC = O=C(OCc1ccc(N[*:1])cc1)[*:2]; Phosphonoacetyl = O=C(CP(=O)(O)O)*; X2 = C[C@@H](N*)[C@@H](O)c1ccccc1; NMeV = CN[C@H](C(=O)O)C(C)C

What was measured:
NCI-1299 cells = experiment: WST-1 cell viability, NCI-H1299 lung cancer cells; type: cell-based; conditions: for IC50: WST-1 (Table 1), read-out: Absolute IC50; for SI = HME-1 IC50/cancer IC50: NCI-1299 (NSCLC) vs HME-1 (Table 3)
Procedure: (§1) All commercial cell lines were purchased at ATCC (LGC Standards SARL, France). Cells were seeded in 96-well plates according to their optimal seeding density, varying between 5.000 and 10.000 cells/well. After attachment overnight, 10-point serial titrations (1:5) were prepared in their equivalent complete media as recommended by ATCC, starting from the 10 mM stock solutions. For doxorubicin comprising prodrugs dilutions started from 100 μM, while for the parent compound doxorubicin dilutions started at 10 μM. […] Seventy-two hours later, compounds were removed together with the supernatants and cells were washed once with PBS to remove excess drugs.
(§2) The WST-1 assay for cell proliferation and viability (Roche, Switzerland) was performed according to manufacturer's protocol. Absorbances were measured at 4 hrs using a Perkin Elmer Ensight multiplate reader, equipped with Kaleido 2.0 software (Perkin Elmer, USA). Cell viability was expressed as a percentage compared to non-treated cells. Absolute IC50 values were extrapolated from a non-linear fitting following the Sigmoidal-4PL regression method using Graphpad Prism 7.0. Likewise, maximal efficacy was determined as 100% minus the cell viability determined when cells are incubated in the presence of a compound. For instance, if 20% of the cells survive incubation in the presence of a compound, then the maximal efficacy of that compound is 100%-20%=80%.
(§3) Selectivity indices (SI) were defined as the ratio of the concentration of drug required to kill 50% of the cells in normal (control, non-cancer) cells, divided by the concentration required to exert the same efficacy in tumor cells: SI=IC50 (control cell)/IC50 (cancer cell), or SI=^HME-1IC50/cancer IC50.

MIA PaCa-2 cells = experiment: WST-1 cell viability, MIA PaCa-2 pancreatic cancer cells; type: cell-based; conditions: for IC50: WST-1 (Table 1), read-out: Absolute IC50; for SI = HME-1 IC50/cancer IC50: MIA PaCa-2 (PaC) vs HME-1 (Table 3)
Procedure: as §1, §2, §3

LS 174T cells = experiment: WST-1 cell viability, LS 174T colorectal cancer cells; type: cell-based; conditions: for IC50: WST-1 (Table 1), read-out: Absolute IC50; for SI = HME-1 IC50/cancer IC50: LS 174T (CrC) vs HME-1 (Table 3)
Procedure: as §1, §2, §3

[1] = system: hiPSC-derived astrocytes (iAstro); experiment: WST-1 cell viability, hiPSC-derived astrocytes (iAstro); type: cell-based, human; conditions: iAstro normal astrocytes, 72 hrs; for IC50: WST-1 (Table 4), read-out: Absolute IC50; for Maximal efficacy: WST-1 (Table 5)
Procedure: as §1, §2, §3
hiPSC-derived astrocytes were purchased from Tempo Biosciences (iAstro™). Prior to use, six-well plates were coated with 1 ml GFR Matrigel (1:100˜0.1 mg/ml, Corning #356231) and allowed to polymerize at 37° C. overnight. Three days before assaying, cells were defrosted and seeded onto the GFR Matrigel in iAstro medium, and allowed to recover from defrosting for 48 hrs. The recovery was aided using RevitaCell™ Supplement during the first 24 hrs. After morphological inspection, cells were transferred to 96-well plates and 4-well microscopy vessels (Millipore), coated with Poly-L-lysine (50 μg/ml, P2533, Sigma Aldrich) and mouse laminin (4 ng/ml, L2020, Sigma Aldrich), using StemPro Accutase reagent (Invitrogen). Following overnight recovery, iAstro's were exposed to the same treatment protocol described above.

cancer cell lines = experiment: In vitro potency and selectivity across a variety of cancer indications (WST-1); type: cell-based; conditions: 72 hrs
Procedure: as §1
as §2, with “For instance, if 20% of the cells survive incubation in the presence of a compound, then the maximal efficacy of that compound is 100%-20%=80%.” left out

[2] = system: LS-174T colorectal tumor cells xenografted in Nude NMRI mice; experiment: In vivo activity on LS-174T colorectal cancer xenograft; design: species or system mouse; conditions: twice per week
Procedure: The in vivo efficacy of PhAc-ALLP-Dox was tested in a mouse model of colorectal cancer. LS-174T colorectal tumor cells were xenografted in Nude NMRI mice. In total, 30 adult (9-10 weeks old) nude female NMRI mice (Janvier, France) were subjected to subcutaneous (SC) tumor cell grafting in the right flank. In total, 2×10^6 LS-174T cells resuspended in PBS were injected in 200 uL final volume. As soon as the tumors were palpable and reached the volume of 200 mm3 the treatment was started. […]
Treatments were performed twice per week for a total of four tail vein administrations/injections (on days 1, 4, 7 and 10). […] During the experiment, tumor volume was measured two times a week and was assessed three-dimensionally with a digital caliper (Mitutoyo, Illinois) using the following formula: […]
Tumor growth inhibition (TGI) expressed as percentage vs control was calculated as follows: % TGI=(1−{Tt/T0/Ct/C0}/1−{C0/Ct})×100 where Tt and T0 are the individual tumor volume of treated mouse X at times t and 0 respectively, Ct and C0 are the mean tumor volume of the control group at times t and 0 respectively.

[3] = system: A2058 melanoma cells subcutaneously implanted in nude NMRI mice; experiment: In vivo activity on A2058 melanoma xenograft; design: species or system mouse
Procedure: The in vivo efficacy of PhAc-ALLP-PABC-MMAE was tested in a mouse melanoma model. A2058 melanoma cells were subcutaneously (SC) implanted in nude NMRI mice. In total, 36 adult (9-10 weeks old) nude female NMRI mice (Janvier, France) were subjected to SC tumor cell grafting in the right flank. In total, 3×10^6 A2058 cells resuspended in PBS plus Matrigel (1:1) were injected in 200 uL final volume. As soon as the tumors were palpable and reached the volume of 200 mm3 the treatment was started. At day zero, mice were randomly divided into 4 groups, based on the tumor volume, in order to have the following experimental sub-cohorts: • control group receiving the vehicle (PBS pH7.2) with a dose of 5 ml/kg, intravenously (iv), once per week (QW); • PhAc-ALLP-PABC-MMAE (2 mg/kg iv, QW); • PhAc-ALLP-PABC-MMAE (4 mg/kg iv, QW); • MMAE (0.9 mg/kg iv, QW).
Treatments were performed once per week for a total of four tail vein administrations/injections (on days 1, 7, 14 and 21). Two extra weeks of observation followed the active treatment phase. During the experiment, tumor volume was measured two times a week and was assessed three-dimensionally with a digital caliper (Mitutoyo, Illinois) using the following formula:
V=4/3π×[(d/2)^2×(D/2)], where d is the minor tumor axis and D is the major tumor axis.

- IC50 (MIA PaCa-2 cells; Homo sapiens, MIA PaCa-2 (PaC), 72 hrs): 0.1 µM
- SI = HME-1 IC50/cancer IC50 (MIA PaCa-2 cells): 0.44
- IC50 (LS 174T cells; Homo sapiens, LS174T, LS 174T (CrC), 72 hrs): 0.01 µM
- SI = HME-1 IC50/cancer IC50 (LS 174T cells): 4.47
SMILES: COc1cccc2c1C(=O)c1c(O)c3c(c(O)c1C2=O)C[C@@](O)(C(=O)CO)C[C@@H]3O[C@H]1C[C@H](N)[C@H](O)[C@H](C)O1 [Doxorubicin, reference compound]
- IC50 (NCI-1299 cells; Homo sapiens, NCI-H1299, NCI-1299 (NSCLC), 72 hrs): 0.03 µM
- cytotoxicity at 100 µM (NCI-1299 cells; Homo sapiens, NCI-H1299, NCI-1299 (NSCLC), 72 hrs, WST-1 (Table 2), read-out: Maximal efficacy, cytotoxicity (%) at 100 μM): 92.9%
- SI = HME-1 IC50/cancer IC50 (NCI-1299 cells): 1.33
- cytotoxicity at 100 µM (MIA PaCa-2 cells; Homo sapiens, MIA PaCa-2 (PaC), 72 hrs, WST-1 (Table 2), read-out: Maximal efficacy, cytotoxicity (%) at 100 μM): 94.4%
- cytotoxicity at 100 µM (LS 174T cells; Homo sapiens, LS174T, LS 174T (CrC), 72 hrs, WST-1 (Table 2), read-out: Maximal efficacy, cytotoxicity (%) at 100 μM): 93.7%

SMILES: COc1cccc2c1C(=O)c1c(O)c3c(c(O)c1C2=O)C[C@@](O)(C(=O)CO)C[C@@H]3O[C@H]1C[C@H](NC(=O)[C@@H]2CCCN2C(=O)[C@H](CC(C)C)NC(=O)[C@H](CC(C)C)NC(=O)[C@H](C)NC(=O)CP(=O)(O)O)[C@H](O)[C@H](C)O1 [PhAc-ALLP-Dox, PhAc-ALLP-Doxorubicin] (HELM PEPTIDE1{[O=C(CP(=O)(O)O)[*:2]].A.L.L.P.[COc1cccc2c1C(=O)c1c(O)c3c(c(O)c1C2=O)C[C@@](O)(C(=O)CO)C[C@@H]3O[C@H]1C[C@H](N[*:1])[C@H](O)[C@H](C)O1]}$$$$V2.0)
- IC50 [1]: 20.3 µM
- Maximal efficacy [1]: 68.5%
- SI = HME-1 IC50/cancer IC50 (NCI-1299 cells): 27.39
- IC50 (NCI-1299 cells; NCI-1299 (NSCLC), 72 hrs): 1.35 µM
- Maximal efficacy, cytotoxicity (%) at 100 μM (NCI-1299 cells; NCI-1299 (NSCLC), 72 hrs, WST-1 (Table 2)): 70.15%
- SI = HME-1 IC50/cancer IC50 (MIA PaCa-2 cells): 0.79
- IC50 (MIA PaCa-2 cells; MIA PaCa-2 (PaC), 72 hrs): 46.8 µM
- Maximal efficacy, cytotoxicity (%) at 100 μM (MIA PaCa-2 cells; MIA PaCa-2 (PaC), 72 hrs, WST-1 (Table 2)): 65.41%
- Potency range against cancer cells (cancer cell lines): within the micromolar range
- Tolerability ([2]; 10 mg/kg and 30 mg/kg iv): mice did tolerate both doses
- Tumor volume compared to the untreated control group ([2]; 30 mg/kg iv, four tail vein administrations): significantly reduced the tumor volume
- SI = HME-1 IC50/cancer IC50 (LS 174T cells): 1514.9
- IC50 (LS 174T cells; LS 174T (CrC), 72 hrs): 0.02 µM
- Maximal efficacy, cytotoxicity (%) at 100 μM (LS 174T cells; LS 174T (CrC), 72 hrs, WST-1 (Table 2)): 54.86%

SMILES: CC[C@H](C)[C@@H]([C@@H](CC(=O)N1CCCC1[C@H](OC)[C@@H](C)C(=O)N[C@H](C)[C@@H](O)c1ccccc1)OC)N(C)C(=O)[C@@H](NC(=O)[C@H](C(C)C)N(C)C(=O)OCc1ccc(NC(=O)[C@@H]2CCCN2C(=O)[C@H](CC(C)C)NC(=O)[C@H](CC(C)C)NC(=O)[C@H](C)NC(=O)CP(=O)(O)O)cc1)C(C)C (stereo partly drawn) [PhAc-ALLP-PABC-MMAE] (Phosphonoacetyl-ALLP[PABC][NMeV]V[Dil][X1]-X2)
- IC50 [1]: > 0.5 µM
- Maximal efficacy [1]: 2% and 1.7%
- Tumor volume compared to the untreated control group ([3]; 2 mg/kg iv, once per week, four administrations): importantly reduced the tumor volume
- Response ([3]; 2 mg/kg iv, once per week, observed until day 34): Complete response
- Relapse and macroscopical toxicity ([3]; 2 mg/kg iv, once per week, until day 34): without any hint of relapse or macroscopical sign of toxicity
- Tumor growth ([3]; higher concentration (4 mg/kg iv, once per week)): important reduction of tumor growth
- Reduction of body weight ([3]; higher concentration (4 mg/kg iv, once per week), sacrificed at day 21): > 20%
